PubChem BioAssay AID256 (DTP/NCI, 2004)
Several values for one entry are separate records, joined by “and”; a condition that tells them apart may be missing. Identical values can stand only once. Inconclusive results and toxic doses are left out. How the source made its calls: active means survival T/C of 150% or more; inactive means T/C below 125% in these data.

System: CD2F1 mice, L1210 leukemia ip, survival T/C
Test: NCI In Vivo Anticancer Drug Screen. Data for tumor model L1210 Leukemia (intraperitoneal) in CD2F1 (CDF1) mice
Conditions: endpoint: mean survival time, higher = longer survival
Outline: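 In this screen, transplantable tumors were grown in mice given either the compound or its vehicle. Results were expressed as the treated measurement relative to the control measurement.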

[1] = dose: 100.0 mg/kg/injection, schedule: Q01DX009 (ip), vehicle: saline with Tween-80
[2] = dose: 200.0 mg/kg/injection, schedule: Q01DX009 (ip), vehicle: saline with Tween-80
[3] = dose: 400.0 mg/kg/injection, schedule: Q01DX009 (ip), vehicle: saline with Tween-80
[4] = dose: 100.0 mg/kg/injection, schedule: Q04DX003 (ip), vehicle: saline with Tween-80
[5] = dose: 200.0 mg/kg/injection, schedule: Q04DX003 (ip), vehicle: saline with Tween-80
[6] = dose: 50.0 mg/kg/injection, schedule: Q01DX009 (ip), vehicle: other
[7] = dose: 50.0 mg/kg/injection, schedule: Q01DX009 (ip), vehicle: saline with Tween-80
[8] = dose: 100.0 mg/kg/injection, schedule: Q04DX002 (ip), vehicle: saline with Tween-80
[9] = dose: 200.0 mg/kg/injection, schedule: Q04DX002 (ip), vehicle: saline with Tween-80
[10] = dose: 400.0 mg/kg/injection, schedule: Q04DX002 (ip), vehicle: saline with Tween-80
[11] = dose: 400.0 mg/kg/injection, schedule: Q04DX003 (ip), vehicle: saline with Tween-80
[12] = dose: 100.0 mg/kg/injection, schedule: Q01DX009 (ip), vehicle: other
[13] = dose: 200.0 mg/kg/injection, schedule: Q01DX009 (ip), vehicle: other
[14] = dose: 100.0 mg/kg/injection, schedule: Q04DX003 (ip), vehicle: saline
[15] = dose: 200.0 mg/kg/injection, schedule: Q04DX003 (ip), vehicle: saline
[16] = dose: 400.0 mg/kg/injection, schedule: Q04DX003 (ip), vehicle: saline
[17] = dose: 100.0 mg/kg/injection, schedule: Q01DX001 (ip), vehicle: saline with Tween-80
[18] = dose: 200.0 mg/kg/injection, schedule: Q01DX001 (ip), vehicle: saline with Tween-80
[19] = dose: 400.0 mg/kg/injection, schedule: Q01DX001 (ip), vehicle: saline with Tween-80

Measured: T/C

C#CCOCCC(=O)O
inactive: dose: 50.0 mg/kg/injection, schedule: Q01DX009 (ip), vehicle: acetone 102 % of control | dose: 100.0 mg/kg/injection, schedule: Q01DX009 (ip), vehicle: acetone 100 % of control | dose: 200.0 mg/kg/injection, schedule: Q01DX009 (ip), vehicle: acetone 97 % of control

CC(C)C1=CC2=CCC3C(C)(C#N)CCCC3(C)C2CC1CC#N (configuration not stated)
inactive: [1] 92 % of control | [2] 86 % of control | [3] 86 % of control

N#Cc1nccnc1Cl
inactive: [4] 96 % of control | [5] 86 % of control

Cc1cc(N=C(N)N)ccc1C(=O)Oc1ccc([N+](=O)[O-])cc1
inactive: dose: 12.5 mg/kg/injection, schedule: Q01DX009 (ip), vehicle: other 102 % of control | dose: 25.0 mg/kg/injection, schedule: Q01DX009 (ip), vehicle: other 98 % of control | [6] 90 % of control

c1ccc(CNc2ncnc3[nH]ncc23)cc1
inactive: dose: 1.12 mg/kg/injection, schedule: Q01DX Z (ip), vehicle: carboxymethylcellulose (CMC) 100 % of control | dose: 2.25 mg/kg/injection, schedule: Q01DX Z (ip), vehicle: carboxymethylcellulose (CMC) 103 % of control | dose: 4.5 mg/kg/injection, schedule: Q01DX Z (ip), vehicle: carboxymethylcellulose (CMC) 100 % of control | dose: 9.0 mg/kg/injection, schedule: Q01DX Z (ip), vehicle: carboxymethylcellulose (CMC) 102 % of control

NCC(Cc1ccc(O)cc1)P(=O)(O)O (configuration not stated)
inactive: [1] 102 % of control | [2] 105 % of control | [3] 93 % of control

CC(C)(CCC(=O)O)c1cccc(Cl)c1
inactive: [7] 96 % of control | [1] 93 % of control

CCCCC(=O)OCC[N+](C)(C)C
inactive: [8] 100 % of control | [9] 95 % of control | [10] 91 % of control

O=[N+]([O-])c1ccc(Sc2ccc(Cl)cc2)cc1
inactive: dose: 100.0 mg/kg/injection, schedule: Q01DX001 (ip), vehicle: other 95 % of control | [1] 98 % of control | [4] 104 % of control | dose: 200.0 mg/kg/injection, schedule: Q01DX001 (ip), vehicle: other 102 % of control | [2] 98 % of control | [5] 95 % of control | dose: 400.0 mg/kg/injection, schedule: Q01DX001 (ip), vehicle: other 107 % of control | [11] 103 % of control

O=[N+]([O-])c1ccc(Oc2nc(Cl)nc(Oc3ccc([N+](=O)[O-])cc3)n2)cc1
inactive: dose: 25.0 mg/kg/injection, schedule: Q04DX003 (ip), vehicle: Klucel (hydroxypropylcellulose) (HPC) 93 % of control | dose: 50.0 mg/kg/injection, schedule: Q04DX003 (ip), vehicle: Klucel (hydroxypropylcellulose) (HPC) 93 % of control | dose: 100.0 mg/kg/injection, schedule: Q04DX003 (ip), vehicle: Klucel (hydroxypropylcellulose) (HPC) 86 % of control

N#CC(/C=C/c1ccccc1)Nc1ccccc1 (configuration not stated)
inactive: [1] 89 % of control | dose: 100.0 mg/kg/injection, schedule: Q04DX003 (ip), vehicle: saline sonified 100 % of control | [2] 90 % of control | dose: 200.0 mg/kg/injection, schedule: Q04DX003 (ip), vehicle: saline sonified 97 % of control | [3] 89 % of control | dose: 400.0 mg/kg/injection, schedule: Q04DX003 (ip), vehicle: saline sonified 96 % of control

CN(/N=C/c1ccccc1)C(=N)N
inactive: dose: 15.62 mg/kg/injection, schedule: Q04DX003 (ip), vehicle: saline 101 % of control | dose: 31.25 mg/kg/injection, schedule: Q04DX003 (ip), vehicle: saline 107 % of control | dose: 62.5 mg/kg/injection, schedule: Q04DX003 (ip), vehicle: saline 103 % of control

C1CCN(P(N2CCCCC2)N2CCCCC2)CC1
inactive: dose: 100.0 mg/kg/injection, schedule: Q04DX002 (ip), vehicle: saline 92 % of control | dose: 200.0 mg/kg/injection, schedule: Q04DX002 (ip), vehicle: saline 92 % of control

CC(=O)N(C)c1ccc(NC(=O)Nc2ccc(Cl)cc2C)cc1
inactive: [7] 91 % of control | [1] 88 % of control | [2] 91 % of control

Nc1cc(N)c([N+](=O)[O-])cc1[N+](=O)[O-]
inactive: [4] 100 % of control | [5] 91 % of control | [11] 108 % of control

CC(=O)c1cccc([N+](=O)[O-])c1
inactive: [12] 105 % of control | [13] 97 % of control | dose: 400.0 mg/kg/injection, schedule: Q01DX009 (ip), vehicle: other 102 % of control

FC(F)=C(F)I
inactive: [6] 95 % of control | [12] 103 % of control | [13] 103 % of control

CC(C)=CC1C(C(=O)OCc2ccc(C)cc2C)C1(C)C (configuration not stated)
inactive: dose: 50.0 mg/kg/injection, schedule: Q01DX001 (ip), vehicle: saline 94 % of control | dose: 100.0 mg/kg/injection, schedule: Q01DX001 (ip), vehicle: saline 91 % of control | dose: 100.0 mg/kg/injection, schedule: Q01DX009 (ip), vehicle: saline 96 % of control | [14] 87 % of control | dose: 200.0 mg/kg/injection, schedule: Q01DX009 (ip), vehicle: saline 96 % of control | [15] 87 % of control | dose: 400.0 mg/kg/injection, schedule: Q01DX001 (ip), vehicle: saline 100 % of control | dose: 400.0 mg/kg/injection, schedule: Q01DX009 (ip), vehicle: saline 102 % of control | [16] 94 % of control

Cc1cc(C2(c3ccc(O)c(C)c3)CCCCC2)ccc1O
inactive: [17] 97 % of control | dose: 100.0 mg/kg/injection, schedule: Q01DX009 (ip), vehicle: Klucel (hydroxypropylcellulose) (HPC) 95 % of control | [18] 94 % of control | dose: 200.0 mg/kg/injection, schedule: Q01DX009 (ip), vehicle: Klucel (hydroxypropylcellulose) (HPC) 94 % of control | [19] 96 % of control | dose: 400.0 mg/kg/injection, schedule: Q01DX009 (ip), vehicle: Klucel (hydroxypropylcellulose) (HPC) 94 % of control

COC(=O)c1ccc(OC)c2nc3c(C=O)c(OC)c(C)c(OC)c3nc12
inactive: [17] 94 % of control | [8] 98 % of control | [18] 95 % of control | [9] 106 % of control | [19] 103 % of control | [10] 106 % of control

O=C1NCCS1
inactive: dose: 75.0 mg/kg/injection, schedule: Q01DX001 (ip), vehicle: saline 98 % of control | dose: 150.0 mg/kg/injection, schedule: Q01DX001 (ip), vehicle: saline 104 % of control

COc1ccc(OC)c(NC(=S)NC(=O)COc2ccccc2)c1
inactive: [17] 87 % of control | [1] 94 % of control and 97 % of control | [8] 98 % of control | [18] 87 % of control | [2] 88 % of control and 93 % of control | [9] 102 % of control | [19] 89 % of control | [3] 102 % of control and 104 % of control | [10] 109 % of control

O=C1C=C(S(=O)(=O)O)c2ccccc2C1=O
inactive: [14] 105 % of control | [15] 103 % of control | [16] 108 % of control
